The text below walks through data of patent US4017596A, “Radiopharmaceutical chelates and method of external imaging” (priority 1975, dated 1977).

SMILES strings stand for the structures.

Series [1] can be described thus: Scintillation camera imaging and blood level in dogs after intravenous injection. Particulars: dog.
Method: One animal was selected for imaging at various time intervals utilizing a scintillation camera. […] Sufficiet cholecystokinin was injected into the dog intravenously to effect contraction of the gall bladder. […] The images were obtained using a gamma scintillation camera (Pho Gamma III) and a parallel hole high sensitivity collimator.
A short description of series [2]: Imaging in dog before and after plasma loading with bromosulphthalein (BSP), compared with I-131 Rose Bengal.
The nature of series [3]: Biodistribution in mice after intravenous injection (organ counting in scintillation counter). In kind it is in vivo. The conditions noted are these: 25 g mice; i.v.; 60 minutes.

For the molecule `Cc1cccc(C)c1NC(=O)CN(CC(=O)O)CC(=O)O` (99mTc complex, metal not drawn) [Example 2], the “time to leaving the gall bladder after cholecystokinin injection” value in series [1] (after i.v. cholecystokinin, FIG. 4 Frame E) is at most 1 min. Besides, the “time at which the liver is clearly identified” value in series [1] (i.v. 4 mCi, FIG. 3 Frame A) came to 5 min. The “uptake by the liver” value in series [1] (i.v. 4 mCi, anterior imaging, FIG. 3) is reported as “rapid uptake by the liver”. Besides, in series [1] (i.v. 4 mCi, at 10 minutes), the “injected dose remaining in the blood” value is on record as “Less than 10%”. Moreover, in series [1] (i.v. 4 mCi, images at 25, 40 and 50 minutes), the “clearance from the liver / accumulation in gall bladder” value is reported as “clearance from the liver is demonstrated with progressive accumulation of the radiopharmaceutical in the gall bladder”. Further, the “injected dose remaining in the blood (second value of "10% and 3% ... respectively")” value in series [1] (i.v. 4 mCi, only "10 minutes" printed, second time missing) is listed as below 3%. In series [2] (dog, BSP levels of 4-7 mg percent to simulate hyperbilirubinemia), the “effect of BSP loading on plasma clearance or imaging characteristics” value is listed as “did not substantially alter the plasma clearance or imaging characteristics”. In addition, the “image quality compared to I-131 Rose Bengal” value in series [2] (same dog, FIG. 5) is reported as “much better quality”.

As for `Oc1cccc2cccnc12` [Example 8, technetium-99m chelate of 8-hyroxyquinoline], in series [3], the “injected dose in the intestines” value is 20% and the “injected dose in the liver” value is 40%.

As to `Oc1cccc2cccnc12` [Example 9, gallium-67 chelate of 8-hydroxyquinoline], in series [3], the “injected dose in the blood” value is 20%, the “injected dose in the intestines” value is on record as 13% and the “injected dose in the liver” value was 25%.
